The numbers were not newly measured in US10278642B2, “Methods of assessing metabolic function” (Aurum Biosciences Limited, priority 2012, dated 2019), which cites them from elsewhere.

For this data set the following is noted: by 100 ml of the liquid at standard pressure and temperature.

In the case of `FC1(F)C(F)(F)C(F)(F)C2(F)C(F)(F)C(F)(F)C(F)(F)C(F)(F)C2(F)C1(F)F` (stereo not shown) [perfluorodecalin], the oxygen dissolved is 49 mL.
